Legend:
Assay type in all cases: biochemical
p110β/p85α = p110β/p85α (Homo sapiens, UniProt P42338); test: Transcreener KINASE Assay, kinase inhibition of p110β/p85α; conditions: for PI3Kβ IH % @ 1 uM: 1 uM test compound; for IC50: read-out: PI3Kβ IC50
How it was run: (§1)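 ADP formation read by far-red competitive FP immunoassay (60 min RT detection step) after an 80 min RT kinase reaction; substrate added as a 30 uM PIP2/10 uM ATP solution (not final).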

p110γ = p110γ (Homo sapiens, UniProt P48736); test: Transcreener KINASE Assay, kinase inhibition of p110γ; conditions: for PI3Kγ IH % @ 1 uM: 1 uM test compound; for IC50: read-out: PI3Kγ IC50
Chain of p110γ (P48736 whole entry): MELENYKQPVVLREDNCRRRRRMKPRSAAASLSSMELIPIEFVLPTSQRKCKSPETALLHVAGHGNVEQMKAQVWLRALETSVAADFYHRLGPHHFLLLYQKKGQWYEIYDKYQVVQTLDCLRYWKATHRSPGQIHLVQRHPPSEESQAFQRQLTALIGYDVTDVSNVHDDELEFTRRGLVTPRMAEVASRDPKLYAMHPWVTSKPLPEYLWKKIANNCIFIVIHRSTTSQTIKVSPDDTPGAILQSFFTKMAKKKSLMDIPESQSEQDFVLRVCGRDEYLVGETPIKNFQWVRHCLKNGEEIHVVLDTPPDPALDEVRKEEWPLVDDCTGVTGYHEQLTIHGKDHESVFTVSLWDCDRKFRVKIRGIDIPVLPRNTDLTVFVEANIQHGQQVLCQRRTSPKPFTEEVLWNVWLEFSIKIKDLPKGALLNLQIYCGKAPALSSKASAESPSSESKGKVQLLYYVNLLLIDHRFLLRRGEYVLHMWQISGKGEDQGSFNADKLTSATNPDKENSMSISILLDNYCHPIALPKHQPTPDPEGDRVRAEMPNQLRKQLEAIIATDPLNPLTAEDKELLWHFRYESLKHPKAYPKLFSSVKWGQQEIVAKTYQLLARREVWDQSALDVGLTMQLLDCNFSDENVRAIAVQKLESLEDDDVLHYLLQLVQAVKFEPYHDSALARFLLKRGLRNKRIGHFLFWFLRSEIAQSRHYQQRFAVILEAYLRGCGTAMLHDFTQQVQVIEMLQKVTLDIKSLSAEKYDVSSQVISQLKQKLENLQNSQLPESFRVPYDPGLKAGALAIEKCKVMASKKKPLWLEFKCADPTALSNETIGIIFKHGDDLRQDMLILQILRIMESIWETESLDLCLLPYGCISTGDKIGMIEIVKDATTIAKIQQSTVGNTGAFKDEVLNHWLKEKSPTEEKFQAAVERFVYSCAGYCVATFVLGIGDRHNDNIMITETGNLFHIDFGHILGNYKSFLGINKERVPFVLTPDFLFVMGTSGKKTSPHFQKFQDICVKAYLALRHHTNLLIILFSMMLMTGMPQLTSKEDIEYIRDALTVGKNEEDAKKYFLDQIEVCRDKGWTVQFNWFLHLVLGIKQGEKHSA
How it was run: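 Homogeneous endpoint format using recombinant enzymes; ADP measured by far-red FP immunoassay after 80 min reaction and 60 min detection, both at room temperature.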

p110δ/p85α = p110δ/p85α (Homo sapiens, UniProt O00329); test: Transcreener KINASE Assay, kinase inhibition of p110δ/p85α; conditions: for PI3Kδ IH % @ 1 uM: 1 uM test compound; for IC50: read-out: PI3Kδ IC50
Chain of p110δ/p85α (O00329 whole entry): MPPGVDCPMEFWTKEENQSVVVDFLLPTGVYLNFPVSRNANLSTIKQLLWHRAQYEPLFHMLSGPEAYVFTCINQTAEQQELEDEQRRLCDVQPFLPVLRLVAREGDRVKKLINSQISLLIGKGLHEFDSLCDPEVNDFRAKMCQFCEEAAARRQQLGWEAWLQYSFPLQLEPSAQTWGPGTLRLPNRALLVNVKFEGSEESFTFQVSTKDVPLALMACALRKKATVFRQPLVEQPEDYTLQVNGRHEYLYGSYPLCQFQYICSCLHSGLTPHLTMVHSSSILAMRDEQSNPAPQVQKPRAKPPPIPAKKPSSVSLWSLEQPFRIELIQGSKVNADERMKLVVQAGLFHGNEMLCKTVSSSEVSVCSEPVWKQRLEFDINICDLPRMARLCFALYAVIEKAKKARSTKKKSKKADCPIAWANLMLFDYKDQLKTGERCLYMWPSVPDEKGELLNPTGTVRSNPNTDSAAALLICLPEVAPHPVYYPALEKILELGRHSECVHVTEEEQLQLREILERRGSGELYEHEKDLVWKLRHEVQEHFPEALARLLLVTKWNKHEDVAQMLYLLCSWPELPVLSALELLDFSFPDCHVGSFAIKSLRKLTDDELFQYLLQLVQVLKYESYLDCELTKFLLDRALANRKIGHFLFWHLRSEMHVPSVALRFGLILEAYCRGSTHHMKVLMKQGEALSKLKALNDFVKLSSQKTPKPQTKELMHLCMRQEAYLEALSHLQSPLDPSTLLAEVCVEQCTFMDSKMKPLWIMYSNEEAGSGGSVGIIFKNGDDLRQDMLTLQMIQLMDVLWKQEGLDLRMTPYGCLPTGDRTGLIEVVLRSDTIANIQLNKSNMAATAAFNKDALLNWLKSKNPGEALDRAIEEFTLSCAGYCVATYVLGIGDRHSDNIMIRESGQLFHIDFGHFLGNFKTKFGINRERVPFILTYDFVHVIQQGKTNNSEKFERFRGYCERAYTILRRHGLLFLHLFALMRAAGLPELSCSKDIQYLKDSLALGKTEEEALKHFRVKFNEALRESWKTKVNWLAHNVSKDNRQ
Chain of p110δ/p85α (P27986 whole entry partner): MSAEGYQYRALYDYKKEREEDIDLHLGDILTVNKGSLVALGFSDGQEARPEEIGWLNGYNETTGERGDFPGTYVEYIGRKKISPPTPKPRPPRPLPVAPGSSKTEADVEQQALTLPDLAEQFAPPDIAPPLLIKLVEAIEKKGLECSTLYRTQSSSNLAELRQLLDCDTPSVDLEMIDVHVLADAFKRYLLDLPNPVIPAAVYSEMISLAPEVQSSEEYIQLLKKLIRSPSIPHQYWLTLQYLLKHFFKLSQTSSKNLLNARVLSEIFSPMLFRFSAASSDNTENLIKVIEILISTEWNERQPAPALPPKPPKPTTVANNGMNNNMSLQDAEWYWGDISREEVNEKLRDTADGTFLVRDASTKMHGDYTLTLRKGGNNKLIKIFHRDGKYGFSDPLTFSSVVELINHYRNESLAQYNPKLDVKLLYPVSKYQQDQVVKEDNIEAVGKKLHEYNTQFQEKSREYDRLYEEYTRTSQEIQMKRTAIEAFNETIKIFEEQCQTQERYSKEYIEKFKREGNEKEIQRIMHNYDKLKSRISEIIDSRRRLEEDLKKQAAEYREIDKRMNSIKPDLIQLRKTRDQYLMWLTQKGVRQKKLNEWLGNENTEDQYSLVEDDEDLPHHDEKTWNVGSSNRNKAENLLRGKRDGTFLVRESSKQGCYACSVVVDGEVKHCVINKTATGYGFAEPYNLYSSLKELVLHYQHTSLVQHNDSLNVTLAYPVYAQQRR
How it was run: as §1

p110α/p85α = p110α/p85α (Homo sapiens, UniProt P42336); test: Transcreener KINASE Assay, kinase inhibition of p110α/p85α; conditions: for PI3Kα IH % @ 1 uM: 1 uM test compound
Experimental: PI3K kinases including p110α/p85α, p110δ/p85α and p110γ are purchased from Invitrogen, and p110β/p85α is from Millipore.
Primary screening data and IC50 values are measured using Transcreener™ KINASE Assay (Bellbrook, Catalog #3003-10K). […] It is a universal, homogenous, high throughput screening (HTS) technology using a far-red, competitive fluorescence polarization immunoassay based on the detection of ADP to monitor the activity of enzymes that catalyze group transfer reactions. Briefly, the Transcreener KINASE Assay is designed as a simple two-part, endpoint assay.
In the first step, the 25 ul kinase reaction is performed by preparing a reaction mixture containing 5 ul test compound (2% DMSO final concentration), 10 ul kinase, buffer (50 mM HEPES, 100 mM NaCl, 1 mM EGTA, 0.03% CHAPS, 3 mM MgCl2, and freshly supplemented 1 mM DTT), and 10 ul 30 uM PIP2/10 uM ATP. The plate is sealed and incubated for 80 min at room temperature. Next, 25 ul ADP detection mix is added per well. The plate is sealed again and incubated for 60 min at room temperature, and then measure fluorescence polarization by Tecan Infinite F500 Reader.
Data is analyzed and IC50s are generated using the add-in software for Microsoft Excel, Xlfit™ (version 2.0). IH %=(ADP amount under 2% DMSO-ADP amount under test compound)/ADP amount under 2% DMSO.

Chain of p110β/p85α (P42338 whole entry): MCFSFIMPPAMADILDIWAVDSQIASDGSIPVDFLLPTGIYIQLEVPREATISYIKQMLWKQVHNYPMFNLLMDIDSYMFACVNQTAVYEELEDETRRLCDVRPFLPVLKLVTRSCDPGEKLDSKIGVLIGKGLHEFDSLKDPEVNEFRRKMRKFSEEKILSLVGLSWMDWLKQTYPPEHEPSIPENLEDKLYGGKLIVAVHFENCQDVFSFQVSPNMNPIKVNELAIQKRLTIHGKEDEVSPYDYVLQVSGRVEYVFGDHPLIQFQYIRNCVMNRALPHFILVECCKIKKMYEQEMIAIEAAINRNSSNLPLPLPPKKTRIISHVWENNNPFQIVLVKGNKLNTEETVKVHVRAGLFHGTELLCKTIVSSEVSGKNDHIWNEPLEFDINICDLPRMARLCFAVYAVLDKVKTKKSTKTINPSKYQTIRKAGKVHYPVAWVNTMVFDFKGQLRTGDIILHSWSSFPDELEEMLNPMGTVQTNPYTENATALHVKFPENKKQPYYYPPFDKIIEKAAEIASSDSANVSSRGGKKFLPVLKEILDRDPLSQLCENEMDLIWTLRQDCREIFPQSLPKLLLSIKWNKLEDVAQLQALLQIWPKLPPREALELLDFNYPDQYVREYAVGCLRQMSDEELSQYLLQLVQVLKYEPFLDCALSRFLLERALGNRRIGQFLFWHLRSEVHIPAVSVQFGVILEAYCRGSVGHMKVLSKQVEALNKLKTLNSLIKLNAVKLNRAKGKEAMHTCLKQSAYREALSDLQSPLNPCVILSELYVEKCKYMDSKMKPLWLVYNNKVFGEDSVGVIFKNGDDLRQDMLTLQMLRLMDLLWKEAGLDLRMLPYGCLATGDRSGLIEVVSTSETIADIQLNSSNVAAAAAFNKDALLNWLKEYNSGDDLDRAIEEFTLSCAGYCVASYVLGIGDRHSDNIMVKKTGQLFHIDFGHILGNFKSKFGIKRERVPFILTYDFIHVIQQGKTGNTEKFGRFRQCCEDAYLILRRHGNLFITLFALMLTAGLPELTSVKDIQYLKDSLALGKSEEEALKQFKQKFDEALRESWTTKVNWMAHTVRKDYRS
Chain of p110β/p85α (P27986 2-724 partner): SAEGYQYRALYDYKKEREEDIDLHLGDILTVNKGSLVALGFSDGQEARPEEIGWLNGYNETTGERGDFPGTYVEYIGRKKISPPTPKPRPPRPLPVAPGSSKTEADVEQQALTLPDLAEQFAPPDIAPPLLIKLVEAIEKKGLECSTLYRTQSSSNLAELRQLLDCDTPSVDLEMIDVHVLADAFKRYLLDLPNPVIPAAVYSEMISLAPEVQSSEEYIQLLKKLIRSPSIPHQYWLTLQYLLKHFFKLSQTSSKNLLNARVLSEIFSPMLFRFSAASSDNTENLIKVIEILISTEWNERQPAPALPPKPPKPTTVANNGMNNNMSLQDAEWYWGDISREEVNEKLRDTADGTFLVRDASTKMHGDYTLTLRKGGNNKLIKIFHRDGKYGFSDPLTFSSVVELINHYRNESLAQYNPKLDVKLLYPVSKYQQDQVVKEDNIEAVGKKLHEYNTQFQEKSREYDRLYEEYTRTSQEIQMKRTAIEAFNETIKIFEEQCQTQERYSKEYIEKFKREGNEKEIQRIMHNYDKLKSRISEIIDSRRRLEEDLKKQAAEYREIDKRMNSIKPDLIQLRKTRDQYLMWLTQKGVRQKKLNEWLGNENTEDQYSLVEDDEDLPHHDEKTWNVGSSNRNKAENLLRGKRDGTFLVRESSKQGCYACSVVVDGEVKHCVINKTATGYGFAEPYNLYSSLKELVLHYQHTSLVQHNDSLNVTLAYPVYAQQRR

COc1cccc(-n2c([C@@H]3CCCN3c3ncnc4[nH]cnc34)nn3ccc(Cl)c3c2=O)c1 [Compound 36]
PI3Kβ IH % @ 1 uM (p110β/p85α): 60.9%
PI3Kγ IH % @ 1 uM (p110γ): 90.8%
IC50 (p110γ): 35 nM
PI3Kδ IH % @ 1 uM (p110δ/p85α): 99.1%
PI3Kα IH % @ 1 uM (p110α/p85α): 6.4%

O=c1c2c(Cl)ccn2nc([C@@H]2CCCN2c2ncnc3[nH]cnc23)n1-c1cccc(F)c1 [Compound 38]
PI3Kβ IH % @ 1 uM (p110β/p85α): 54.8%
PI3Kγ IH % @ 1 uM (p110γ): 93.5%
IC50 (p110δ/p85α): 3 nM
PI3Kα IH % @ 1 uM (p110α/p85α): −3.3%

Cc1ccn2nc([C@@H]3CCCN3c3ncnc4[nH]cc(C#N)c34)n(-c3ccccc3)c(=O)c12 [Compound 42]
PI3Kβ IH % @ 1 uM (p110β/p85α): 79.8%
IC50 (p110β/p85α): 186 nM
PI3Kγ IH % @ 1 uM (p110γ): 91.2%
IC50 (p110γ): 5 nM
PI3Kδ IH % @ 1 uM (p110δ/p85α): >100%
PI3Kα IH % @ 1 uM (p110α/p85α): 71.8%

Cc1ccn2nc([C@@H]3CCCN3c3ncnc4[nH]cnc34)n(-c3ccccc3)c(=O)c12 [Compound 43]
PI3Kβ IH % @ 1 uM (p110β/p85α): 66.0%
PI3Kγ IH % @ 1 uM (p110γ): 96.6%
IC50 (p110γ): 19 nM
PI3Kδ IH % @ 1 uM (p110δ/p85α): >100%
IC50 (p110δ/p85α): 2 nM
PI3Kα IH % @ 1 uM (p110α/p85α): 35.1%

Cc1ccn2nc([C@@H]3CCCN3c3nc(N)nc4[nH]cnc34)n(-c3ccccc3)c(=O)c12 [Compound 44]
PI3Kβ IH % @ 1 uM (p110β/p85α): 74.3%
IC50 (p110β/p85α): 302 nM
PI3Kγ IH % @ 1 uM (p110γ): 95.2%
IC50 (p110γ): 5 nM
PI3Kδ IH % @ 1 uM (p110δ/p85α): >100%
IC50 (p110δ/p85α): 1 nM
PI3Kα IH % @ 1 uM (p110α/p85α): 46.7%

N#Cc1c[nH]c2ncnc(N3CCC[C@H]3c3nn4ccc(Cl)c4c(=O)n3Cc3ccccc3)c12 [Compound 62]
PI3Kβ IH % @ 1 uM (p110β/p85α): 42.2%
PI3Kγ IH % @ 1 uM (p110γ): >100%
IC50 (p110γ): 39 nM
PI3Kδ IH % @ 1 uM (p110δ/p85α): 95.4%
IC50 (p110δ/p85α): 39 nM
PI3Kα IH % @ 1 uM (p110α/p85α): 7.1%

CC(C)Cn1c([C@@H]2CCCN2c2ncnc3[nH]cc(C#N)c23)nn2ccc(Cl)c2c1=O [Compound 64]
PI3Kβ IH % @ 1 uM (p110β/p85α): 78.8%
IC50 (p110β/p85α): 251 nM
PI3Kγ IH % @ 1 uM (p110γ): 89.9%
IC50 (p110γ): 41 nM
PI3Kδ IH % @ 1 uM (p110δ/p85α): 98.9%
IC50 (p110δ/p85α): 3 nM
PI3Kα IH % @ 1 uM (p110α/p85α): 32.6%

N#Cc1c[nH]c2ncnc(N3CCC[C@H]3c3nn4ccc(Cl)c4c(=O)n3Cc3ccccn3)c12 [Compound 65]
PI3Kβ IH % @ 1 uM (p110β/p85α): 50.6%
PI3Kγ IH % @ 1 uM (p110γ): >100%
IC50 (p110γ): 78 nM
PI3Kδ IH % @ 1 uM (p110δ/p85α): >100%
IC50 (p110δ/p85α): 14 nM
PI3Kα IH % @ 1 uM (p110α/p85α): 52.6%

N#Cc1c[nH]c2ncnc(N3CCC[C@H]3c3nn4ccc(Cl)c4c(=O)n3Cc3cccnc3)c12 [Compound 66]
PI3Kβ IH % @ 1 uM (p110β/p85α): 63.6%
PI3Kγ IH % @ 1 uM (p110γ): >100%
IC50 (p110γ): 14 nM
PI3Kδ IH % @ 1 uM (p110δ/p85α): >100%
IC50 (p110δ/p85α): 12 nM
PI3Kα IH % @ 1 uM (p110α/p85α): 75.6%

N#Cc1c(N)ncnc1N1CCC[C@H]1c1nn2ccc(Cl)c2c(=O)n1Cc1ccccn1 [Compound 69]
PI3Kβ IH % @ 1 uM (p110β/p85α): 57.8%
PI3Kγ IH % @ 1 uM (p110γ): 68.8%
PI3Kδ IH % @ 1 uM (p110δ/p85α): 99.9%
IC50 (p110δ/p85α): 9 nM
PI3Kα IH % @ 1 uM (p110α/p85α): 13.0%

N#Cc1c[nH]c2ncnc(N3C[C@H](O)C[C@H]3c3nn4ccc(Cl)c4c(=O)n3-c3ccccc3)c12 [Compound 70, 4-((2S,4R)-2-(5-chloro-4-oxo-3-phenyl-3,4-dihydropyrrolo[2,1-f][1,2,4]triazin-2-yl)-4-hydroxypyrrolidin-1-yl)-7H-pyrrolo[2,3-d]pyrimidine-5-carbonitrile]
PI3Kβ IH % @ 1 uM (p110β/p85α): 92.1%
IC50 (p110β/p85α): 220 nM
PI3Kγ IH % @ 1 uM (p110γ): >100%
IC50 (p110γ): 25 nM
PI3Kδ IH % @ 1 uM (p110δ/p85α): 99.1%
IC50 (p110δ/p85α): 3 nM
PI3Kα IH % @ 1 uM (p110α/p85α): 41.6%

CC(=O)c1cnc(N)nc1N1CC[C@H]1c1nn2ccc(Cl)c2c(=O)n1-c1ccccc1 [Compound 299]
PI3Kβ IH % @ 1 uM (p110β/p85α): 38.6%
IC50 (p110β/p85α): 644 nM
PI3Kδ IH % @ 1 uM (p110δ/p85α): 99.4%
IC50 (p110δ/p85α): 6 nM
IC50 (p110α/p85α; read-out: PI3Kα IC50): 2940 nM

Reference: patent publication US20150307520A1, “NOVEL HETEROARYL AND HETEROCYCLE COMPOUNDS, COMPOSITIONS AND METHODS THEREOF” (HUTCHISON MEDIPHARMA LIMITED, priority 2012, published 2015)
